Structures can show the parent of a compound that is named as a salt.
How the values were obtained:
[1] = target: Bcl-2 protein (histag-Bcl-2, UniProtKB P10415) (Homo sapiens, UniProt P10415); experiment: Inhibition of Bcl-2 by the fluorescence polarisation technique; format: binding; settings: for IC50: fluorescence polarisation, 2 hours incubation, read-out: IC50 (μM) Bcl-2 FP; for Bcl-2 FP, % at given concentration: @10 μM
Description: The fluorescence polarisation tests were carried out on microplates (384 wells). The Bcl-2 protein, labelled (histag-Bcl-2 such that Bcl-2 corresponds to the UniProtKB® primary accession number: P10415), at a final concentration of 5×10^−9M, is mixed with a fluorescent peptide (Fluorescein-REIGAQLRRMADDLNAQY), at a final concentration of 1.00×10^−9M in a buffer solution (Hepes 10 mM, NaCl 150 mM, Tween20 0.05%, pH 7.4), in the presence or absence of increasing concentrations of test compounds. After incubation for 2 hours, the fluorescence polarisation is measured.

[2] = test system: RS4; 11 leukaemia tumour line; experiment: In vitro cytotoxicity, Microculture Tetrazolium Assay (MTT); format: cell-based; settings: 11 cells, 48 hours exposure
Description: The cytotoxicity studies were carried out on the RS4; 11 leukaemia tumour line.
The cells are distributed onto microplates and exposed to the test compounds for 48 hours.
The cell viability is then quantified by a colorimetric assay, the Microculture Tetrazolium Assay (Cancer Res., 1987, 47, 939-942).

Sequence of Bcl-2 protein (P10415 whole entry): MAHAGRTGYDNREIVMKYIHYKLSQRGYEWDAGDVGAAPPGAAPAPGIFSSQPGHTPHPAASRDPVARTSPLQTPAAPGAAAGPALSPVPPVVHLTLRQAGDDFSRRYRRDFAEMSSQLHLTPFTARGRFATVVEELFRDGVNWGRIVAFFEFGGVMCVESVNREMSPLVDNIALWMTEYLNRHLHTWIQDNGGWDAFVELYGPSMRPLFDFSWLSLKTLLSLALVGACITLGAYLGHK

Cc1c2cc(n1C)-c1cc(Cl)ccc1C(=O)N1Cc3cccc(c3CC1C)OCCCc1c(cc(C#N)n1C)N(c1ccc(O)cc1)C2=O (single isomer, unassigned) [Example 26, (16S or R)-11-Chloro-4-(4-hydroxyphenyl)-1,7,8,16-tetramethyl-5,14-dioxo-4,5,8,16,17,23,24,25-octahydro-1H,14H-15,18-methano-6,9-(metheno)-dibenzo[b,h]pyrrolo[3,2-p][1,6,11,15]oxatriazacycloicosine-2-carbonitrile] showed an IC50 [1] of 0.0041 µM and an IC50 [2] of 1.66 nM.
For Cc1c2cc(n1C)-c1cc(Cl)ccc1C(=O)N1CCc3c(cccc3OCCN(C)CCOc3ncc(cn3)N(c3ccc(O)cc3)C2=O)C1 [Example 44, 10-Chloro-2-(4-hydroxyphenyl)-5,6,27-trimethyl-24,30-dioxa-2,6,15,27,32,35-hexaazahexacyclo[29.2.2.1˜4,7˜.1˜15,19˜.0˜8,13˜.0˜18,23˜]hepta-triaconta-1(33),4,7(37),8,10,12,18,20,22,31,34-undecaene-3,14-dione], the IC50 [1] was 0.00497 µM and the IC50 ([2]; Homo sapiens, RS4-11, 48 h) was 35.4 nM.
Cc1c2cc(n1C)-c1cc(Cl)ccc1CN1CCc3c(cccc3OCCc3c(cnn3C)N(c3ccc(O)cc3)C2=O)C1 [Example 10, 11-Chloro-4-(4-hydroxyphenyl)-1,7,8-trimethyl-1,4,16,17,23,24-hexahydro-14H-15,18-methano-6,9-(metheno)dibenzo[l,r]pyrazolo[3,4-d]-[1,6,10,15]oxatriazacyclononadecin-5(8H)-one hydrochloride] showed an IC50 [1] of 0.299 µM and an IC50 ([2]; Homo sapiens, RS4-11, 48 h) greater than 300 nM.
With Cc1c2cc(n1C)-c1cc(Cl)ccc1C(=O)N1CCC(CC1)COCCOCCOc1ncc(cn1)N(c1ccc(O)cc1)C2=O [Example 43, 6-Chloro-14-(4-hydroxyphenyl)-10,11-dimethyl-19,22,25-trioxa-1,10,14,17,32-pentaazapentacyclo[25.2.2.2˜15,18˜. 1˜9,12˜.0˜3,8˜]tetratriaconta-3,5,7,9(34),11,15,17,32-octaene-2,13-dione] the “Bcl-2 FP, % at given concentration” value [1] was 34.8% @10 μM and the IC50 ([2]; Homo sapiens, RS4-11, 48 h) was greater than 1880 nM.
Cc1c(N2C(=O)c3cc(n(C)c3C)-c3cc(Cl)ccc3C(=O)N3CCC(CCOc4cc(O)ccc42)CC3)cc(C#N)n1C [Example 27, 4-[15-Chloro-3-hydroxy-18,19-dimethyl-12,21-dioxo-7,8,9,10,18,21-hexahydro-6H,12H,22H-8,11-ethano-20,17-(metheno)dibenzo[b,j][1,4,8,13]oxatriaza-cyclooctadecin-22-yl]-1,5-dimethyl-1H-pyrrole-2-carbonitrile] showed an IC50 [1] of 0.0098 µM and an IC50 ([2]; Homo sapiens, RS4-11, 48 h) of 104 nM.
With Cc1c2cc(n1C)-c1cc(Cl)ccc1C(=O)N1CCCC(COCCOCCOc3ncc(cn3)N(c3ccc(O)cc3)C2=O)C1 (stereo not drawn) [Example 42, 10-Chloro-2-(4-hydroxyphenyl)-5,6-dimethyl-21,24,27-trioxa-2,6,15,29,32-pentaazapentacyclo[26.2.2.1˜4,7˜.1˜15,19˜.0˜8,13˜]tetratriaconta-1(30),4, 7(34),8,10,12,28,31-octaene-3,14-dione] the “Bcl-2 FP, % at given concentration” value [1] was 39.2% @10 μM and the IC50 ([2]; Homo sapiens, RS4-11, 48 h) was greater than 600 nM.
Cc1c2cc(n1C)-c1cc(Cl)ccc1C(=O)N1CCc3c(cccc3OCCOc3cccc(c3)N(c3ccc(O)cc3)C2=O)C1 [Example 1, 6-Chloro-14-(4-hydroxyphenyl)-10,11-dimethyl-20,23-dioxa-1,10,14-triazahexacyclo[26.3.1.1˜9,12˜.1˜15,19−.0˜3,8˜.0˜24.29˜]tetratriaconta-3,5,7,9(34),11,15(3.3),16,18,24,26,28-undecaene-2,13-dione] showed an IC50 [1] of 0.0067 µM and an IC50 ([2]; Homo sapiens, RS4-11, 48 h) of 107 nM.
In the case of Cc1c2cc(n1C)-c1cc(Cl)ccc1C(=O)N1CCc3c(cccc3OCCOc3cc(C#N)cc(c3)N(c3ccc(O)cc3)C2=O)C1 [Example 4, 6-Chloro-14-(4-hydroxyphenyl)-10,11-dimethyl-2,13-dioxo-20,23-dioxa-1,10,14-triazahexacyclo[26.3.1.1˜9,12˜.1˜5,19˜.0˜3,8˜.0˜24.29˜]tetratriaconta-3,5,7,9(34),11,15(33),16,18,24,26,28-undecaene-17-carbonitrile], the IC50 [1] is reported as 0.0023 µM and the IC50 ([2]; Homo sapiens, RS4-11, 48 h) is reported as 7.73 nM.
With Cc1c2cc(n1C)-c1cc(Cl)ccc1C(=O)N1CCc3c(cccc3OCCCOc3cc(C#N)cc(c3)N(c3ccc(O)cc3)C2=O)C1 [Example 5, 6-Chloro-14-(4-hydroxyphenyl)-10,11-dimethyl-2,13-dioxo-20,24-dioxa-1,10,14-triazahexacyclo[27.3.1.1˜9,12˜.1˜15,19˜.0˜3,8˜.0˜25,30˜]pentatriaconta-3,5,7,9(35),11,15(34),16,18,25,27,29-undecaene-17-carbonitrile] the IC50 [1] was 0.00205 µM and the IC50 ([2]; Homo sapiens, RS4-11, 48 h) was 21.4 nM.
For Cc1c2cc(n1C)-c1cc(Cl)ccc1C(=O)N1CCc3c(cccc3OCCCCn3c(C#N)cc(c3C)N(c3ccc(O)cc3)C2=O)C1 [Example 7, 6-Chloro-14-(4-hydroxyphenyl)-10,11,33-trimethyl-2,13-dioxo-23-oxa-1,10,14,18-tetraazahexacyclo[26.3.1.1˜9,12˜.1˜15,18˜.0˜3,8˜.0˜24,29˜]tetratriaconta-3,5,7,9(34),11,15(33),16,24,26,28-decaene-17-carbonitrile], the IC50 [1] was 0.003 µM and the IC50 ([2]; Homo sapiens, RS4-11, 48 h) was 4.94 nM.
With Cc1c2cc(n1C)-c1cc(Cl)ccc1C(=O)N1CCc3c(cccc3OCCCCOc3ncc(cn3)N(c3ccc(O)cc3)C2=O)C1 [Example 41, 10-Chloro-2-(4-hydroxyphenyl)-5,6-dimethyl-24,29-dioxa-2,6,15,31,34-pentaazahexacyclo[28.2.2.1˜4,7˜.1˜15,19˜.0˜8,13˜.0˜18,23˜]hexatriaconta-1(32),4,7(36),8,10,12,18,20,22,30,33-undecaene-3,14-dione] the IC50 [1] was 0.0467 µM and the IC50 ([2]; Homo sapiens, RS4-11, 48 h) was 197 nM.
With Cc1c2cc(n1C)-c1cc(Cl)ccc1C(=O)N1Cc3cccc(c3CC1C)OCCCc1c(cc(C#N)n1C)N(c1ccc(O)cc1)C2=O (single isomer, unassigned) [Example 25, (16R or S)-11-Chloro-4-(4-hydroxyphenyl)-1,7,8,16-tetramethyl-5,14-dioxo-4,5,8,16,17,23,24,25-octahydro-1H,14H-15,18-methano-6,9-(metheno)dibenzo[b,h]-pyrrolo[3,2-p][1,6,11,15]oxatriazacycloicosine-2-carbonitrile] the IC50 [1] was 0.268 µM and the IC50 [2] was 809 nM.
With Cc1c2cc(n1C)-c1cc(Cl)ccc1C(=O)N1CCc3c(cccc3OCCCCCOc3ncc(cn3)N(c3ccc(O)cc3)C2=O)C1 [Example 40, 10-Chloro-2-(4-hydroxyphenyl)-5,6-dimethyl-24,30-dioxa-2,6,15,32,35-pentaazahexacyclo[29.2.2.1˜4,7˜.1˜15,19˜.0˜8,13˜.0˜8,23˜]heptatriaconta-1(33),4,7(37),8,10,12,18,20,22,31,34-undecuene-3,14-dione] the IC50 [1] was 0.0064 µM and the IC50 ([2]; Homo sapiens, RS4-11, 48 h) was 29.9 nM.
Work on Cc1c2cc(n1C)-c1cc(Cl)ccc1C(=O)N1CCc3c(cccc3OCCC[n+]3cccc(c3)N(c3ccc(O)cc3)C2=O)C1 [Example 30, 6-Chloro-14-(4-hydroxyphenyl)-10,11-dimethyl-2,13-dioxo-23-oxa-1,10,14-triaza-19-azoniahexacyclo[26.3.1.1˜9,12˜.1˜15,19˜.0˜3,8˜.0˜24,29˜]tetratriaconta-3,5,7,9(34),11,15(33),16,18,24,26,28-undecaene trifluoromethanesulphonate] yielded an IC50 [1] of 0.0314 µM and an IC50 ([2]; Homo sapiens, RS4-11, 48 h) greater than 1880 nM.
Cc1c2cc(n1C)-c1cc(Cl)ccc1C(=O)N1CCc3c(cccc3OCCCc3cc(C#N)cc(c3)N(c3ccc(O)cc3)C2=O)C1 [Example 9, 6-Chloro-14-(4-hydroxyphenyl)-10,11-dimethyl-2,13-dioxo-23-oxa-1,10,14-triazahexacyclo[26.3.1.1˜9,12˜.1˜15,19˜.0˜3,8˜.0˜24,29˜]tetratriaconta-3,5,7,9(34),11.15 (33),16,18,24,26,28-undecaene-17-carbonitrile] showed an IC50 [1] of 0.0023 µM and an IC50 ([2]; Homo sapiens, RS4-11, 48 h) of 5.24 nM.
Cc1c2cc(n1C)-c1cc(F)ccc1C(=O)N1CCc3c(cccc3OCCc3c(cnn3C)N(c3ccc(O)cc3)C2=O)C1 [Example 20, 11-Fluoro-4-(4-hydroxyphenyl)-1,8-trimethyl-1,4,16,17,23,24-hexahydro-14H-15,18-methano-6,9-(metheno)dibenzo[l,r]pyrazolo[3,4-d][1,6,10,15]oxatriazacyclo-nonadecine-5,14(8H)-dione] showed an IC50 [1] of 0.0123 µM and an IC50 ([2]; Homo sapiens, RS4-11, 48 h) of 81.2 nM.
Cc1c2cc(n1C)-c1cc(F)ccc1C(=O)N1CCc3c(cccc3OCCOCCOc3ncc(cn3)N(c3ccc(O)cc3)C2=O)C1 [Example 37, 10-Fluoro-2-(4-hydroxyphenyl)-5,6-dimethyl-24,27,30-trioxa-2,6,15,32,35-pentaazahexacyclo[29.2.2.1˜4,7˜.1˜15,19˜.0˜8,13˜.0˜18,23˜]heptatriaconta-1(33),4,7(37),8,10,12,18,20,22,31,34-undecuene-3,14-dione] showed an IC50 [1] of 0.0102 µM and an IC50 ([2]; Homo sapiens, RS4-11, 48 h) of 49.6 nM.
Cc1c2cc(n1C)-c1cc(Cl)ccc1C(=O)N1CCc3c(cccc3OCCOCCN(c3ccc(O)cc3)C2=O)C1 [Example 34, 18-chloro-11-(4-hydroxyphenyl)-14,15-dimethyl-6,7,10,11,23,24-hexahydro-9H,21H-1,22-methano-13,16-(metheno)dibenzo[m,s][1,4,7,11,16]dioxatriaza-cycloicosine-12,21(15H)-dione] gave an IC50 [1] of 0.0693 µM and an IC50 ([2]; Homo sapiens, RS4-11, 48 h) of 1240 nM.
